Measurements published in patent US20110020436A1 (priority 2006, published 2011).

Experiments:
paw swelling and edema = details: systemic melatonin after injection of a noxious stimulant; cited from earlier work
stressed skin flaps = details: animals with pineal glands removed, versus no melatonin; cited from earlier work
COX-2 = details: macrophage cells after exposure to LPS; cited from earlier work
[1] = Sleepiness side effect in the case subjects; type: in vivo, human; details: topical application
Source text: This is probably due to either the local metabolism of melatonin or to the metabolism of melatonin in the liver, which is its primary site of metabolism (Slominski).

COX-1 = details: macrophage cells; cited from earlier work
iNOS = details: macrophage cells after exposure to LPS; cited from earlier work

For `COc1ccc2[nH]cc(CCNC(C)=O)c2c1` [melatonin, N-acetyl-5-methoxytryptamine], which “swelling and edema of the paw” value (paw swelling and edema) is on record?
Its value is “reduction of swelling and edema”.

And the “levels of MDA and nitric oxide” value (stressed skin flaps)?
Its value is “decreased levels”.

And the levels of glutathione (stressed skin flaps)?
Its levels of glutathione is “increased levels”.

What about the “activation of COX-2” value (COX-2) of the same compound?
Its value is “inhibits the activation”.

And the sleepiness [1]?
Its sleepiness is “no sleepiness”.

What about the COX-1 function (COX-1) of the same compound?
Its COX-1 function is “does not inhibit”.

And the “activation of iNOS” value (iNOS)?
Its value is “inhibits the activation”.
